The record followed here is US7473688B2, “Indolobenzazepine HCV NS5B inhibitors” (Bristol-Myers Squibb Company, priority 2005, dated 2009).

What is called IC50 is the concentration that inhibits the measured activity by half.

A value given as a limit tells only on which side of the number the result lay.

The first experiment deals with T1, HCV NS5B (Hepatitis C virus genotype 1b, UniProt Q9WMX2).
T1 construct: The protein was expressed with an 18 amino acid C-terminal truncation to enhance the solubility; made in house; host or cells: E. coli BL21 (DE3), pET21a
T1 sequence (Q9WMX2 2420-2992): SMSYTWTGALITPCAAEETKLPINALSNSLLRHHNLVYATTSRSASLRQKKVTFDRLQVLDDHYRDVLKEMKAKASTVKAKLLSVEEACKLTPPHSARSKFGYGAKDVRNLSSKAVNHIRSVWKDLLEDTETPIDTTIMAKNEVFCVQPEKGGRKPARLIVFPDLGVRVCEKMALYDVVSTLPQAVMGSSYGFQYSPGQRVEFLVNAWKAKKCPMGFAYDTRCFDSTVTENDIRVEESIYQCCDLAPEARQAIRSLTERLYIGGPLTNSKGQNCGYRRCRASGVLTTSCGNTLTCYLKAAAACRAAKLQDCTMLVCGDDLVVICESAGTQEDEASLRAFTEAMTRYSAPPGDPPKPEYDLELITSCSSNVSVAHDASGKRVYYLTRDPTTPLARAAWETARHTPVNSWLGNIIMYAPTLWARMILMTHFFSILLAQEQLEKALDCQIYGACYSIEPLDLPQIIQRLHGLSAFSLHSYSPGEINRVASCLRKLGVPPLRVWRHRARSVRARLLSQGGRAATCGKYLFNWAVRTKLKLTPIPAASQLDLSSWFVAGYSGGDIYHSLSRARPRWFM
Briefly: HCV NS5B RdRp enzyme assay (preincubation protocol). It is filed as biochemical. As to conditions: Table 1, read-out: IC50*. The protocol:
HCV NS5B RdRp cloning, expression, and purification. The cDNA encoding the NS5B protein of HCV, genotype 1b, was cloned into the pET21a expression vector. The protein was expressed with an 18 amino acid C-terminal truncation to enhance the solubility. The E. coli competent cell line BL21 (DE3) was used for expression of the protein. Cultures were grown at 37° C. for ˜4 hours until the cultures reached an optical density of 2.0 at 600 nm. The cultures were cooled to 20° C. and induced with 1 mM IPTG. Fresh ampicillin was added to a final concentration of 50 μg/ml and the cells were grown overnight at 20° C.
Cell pellets (3L) were lysed for purification to yield 15-24 mgs of purified NS5B. The lysis buffer consisted of 20 mM Tris-HCl, pH 7.4, 500 mM NaCl, 0.5% triton X-100, 1 mM DTT, 1 mM EDTA, 20% glycerol, 0.5 mg/ml lysozyme, 10 mM MgCl2, 15 ug/ml deoxyribonuclease I, and Complete TM protease inhibitor tablets (Roche). After addition of the lysis buffer, frozen cell pellets were resuspended using a tissue homogenizer. To reduce the viscosity of the sample, aliquots of the lysate were sonicated on ice using a microtip attached to a Branson sonicator. The sonicated lysate was centrifuged at 100,000×g for 1 hr at 4° C. and filtered through a 0.2 μm filter unit (Corning).
The protein was purified using three sequential chromatography steps: Heparin sepharose CL-6B, polyU sepharose 4B, and Hitrap SP sepharose (Pharmacia). The chromatography buffers were identical to the lysis buffer but contained no lysozyme, deoxyribonuclease I, MgCl2 or protease inhibitor and the NaCl concentration of the buffer was adjusted according to the requirements for charging the protein onto the column. Each column was eluted with a NaCl gradient which varied in length from 5-50 column volumes depending on the column type. After the final chromatography step, the resulting purity of the enzyme is >90% based on SDS-PAGE analysis. The enzyme was aliquoted and stored at −80° C.
Standard HCV NS5B RdRp enzyme assay. HCV RdRp genotype 1b assays were run in a final volume of 60 μl in 96 well plates (Costar 3912). The assay buffer is composed of 20 mM Hepes, pH 7.5, 2.5 mM KCl, 2.5 mM MgCl2, 1 mM DTT, 1.6 U RNAse inhibitor (Promega N2515), 0.1 mg/ml BSA (Promega R3961), and 2% glycerol. All compounds were serially diluted (3-fold) in DMSO and diluted further in water such that the final concentration of DMSO in the assay was 2%. HCV RdRp genotype 1b enzyme was used at a final concentration of 28 nM. A polyA template was used at 6 nM, and a biotinylated oligo-dT12 primer was used at 180 nM final concentration. Template was obtained commercially (Amersham 27-4110). Biotinylated primer was prepared by Sigma Genosys. 3H-UTP was used at 0.6 μCi (0.29 μM total UTP). Reactions were initiated by the addition of enzyme, incubated at 30° C. for 60 min, and stopped by adding […] of 50 mM EDTA containing SPA beads (4 μg/μl, Amersham RPNQ 0007). Plates were read on a Packard Top Count NXT after >1 hr incubation at room temperature.
Modified HCV NS5B RdRp enzyme assay. A modified enzyme assay was performed essentially as described for the standard enzyme assay except for the following: The biotinylated oligo dT12 primer was precaptured on streptavidin-coated SPA beads by mixing primer and beads in assay buffer and incubating at room temperature for one hour. Unbound primer was removed after centrifugation. The primer-bound beads were resuspended in 20 mM Hepes buffer, pH 7.5 and used in the assay at final concentrations of […] primer and 0.67 μg/μl beads. Order of addition in the assay: Enzyme (14 nM) was added to diluted compound followed by the addition of a mixture of template (0.2 nM), 3H-UTP (0.6 μCi, 0.29 μM), and primer-bound beads, to initiate the reaction; concentrations given are final. Reactions were allowed to proceed for 4 hours at 30° C.
IC50 values for compounds were determined using seven different [I]. […]
Take `C[C@@H]1CN(C(=O)NC2Cc3ccccc3-c3c(C4CCCCC4)c4ccc(C(=O)O)cc4n3C2)C[C@H](C)O1` (stereo partly shown) [drawing 151]: the IC50 was in the range of 10 to 1000 nM.

Take `C[C@@H]1CN(CCNC(=O)C2=Cc3ccccc3-c3c(C4CCCCC4)c4ccc(C(=O)NS(=O)(=O)N(C)C)cc4n3C2)C[C@H](C)O1` [drawing 148]: the IC50 fell in the range of 10 to 1000 nM.

`CC(=O)NN(C)C(=O)C1=Cc2ccccc2-c2c(C3CCCCC3)c3ccc(C(=O)O)cc3n2C1` [drawing 156]: the IC50 was in the range of 10 to 1000 nM.

For the molecule `CN(C)S(=O)(=O)NC(=O)c1ccc2c(C3CCCCC3)c3n(c2c1)CC(C(=O)N1CCC(N2CCOCC2)CC1)=Cc1cc(OCc2ccccc2)ccc1-3` [drawing 139], the IC50 fell in the range of 10 to 1000 nM.

Consider `CON(C)S(=O)(=O)NC(=O)c1ccc2c(C3CCCCC3)c3n(c2c1)CC(C(=O)N1CCOCC1)=Cc1ccccc1-3` [drawing 90], for which the IC50 lay within 10 to 1000 nM.

On to `CN(C)S(=O)(=O)NC(=O)c1ccc2c(C3CCCCC3)c3n(c2c1)CC(NC(=O)N1CCOCC1)Cc1ccccc1-3` (stereo not shown) [drawing 155], for which the IC50 is 10 to 1000 nM.

With `COC(=O)c1ccc2c(C3CCCCC3)c3n(c2c1)CC(C(=O)N1CCC(N2CC[C@H](F)C2)CC1)=Cc1ccccc1-3`, the IC50 was greater than 1000 nM.

Staying with this experiment, now noted: Table 1a, read-out: IC50*.
As for `COc1ccc2c(c1)C=C(C(=O)N(C)CC(=O)N1CCOCC1)Cn1c-2c(C2CCCCC2)c2ccc(C(=O)O)cc21`, the IC50 was in the range of 10 to 1000 nM.

For the molecule `COc1ccc2c(c1)C=C(C(=O)N1CCN(C(=O)CO)CC1)Cn1c-2c(C2CCCCC2)c2ccc(C(=O)NS(=O)(=O)N(C)C)cc21`, the IC50 fell in the range of 10 to 1000 nM.

Take `COc1ccc2c(c1)CC(N(C)C(=O)C1CCOCC1)Cn1c-2c(C2CCCCC2)c2ccc(C(=O)O)cc21` (stereo not shown): the IC50 was less than 20 nM.

`COc1ccc2c(c1)C=C(C(=O)N1CCN(c3nccs3)CC1)Cn1c-2c(C2CCCCC2)c2ccc(C(=O)NS(=O)(=O)N(C)C)cc21`: the IC50 lay within 10 to 1000 nM.

On to `COc1ccc2c(c1)C=C(C(=O)N1CCS(=O)(=O)CC1)Cn1c-2c(C2CCCCC2)c2ccc(C(=O)NS(=O)(=O)N(C)C)cc21`, for which the IC50 fell in the range of 10 to 1000 nM.

In the case of `COc1ccc2c(c1)C=C(C(=O)N1CCN(C(=O)CN)CC1)Cn1c-2c(C2CCCCC2)c2ccc(C(=O)NS(=O)(=O)N(C)C)cc21`, the IC50 was less than 20 nM.

Turning to `CN(C)S(=O)(=O)NC(=O)c1ccc2c(C3CCCCC3)c3n(c2c1)CC(NC(=O)C1CCOCC1)Cc1ccccc1-3` (stereo not shown), the IC50 lay in the range of 10 to 1000 nM.

As for `CCN(CC)C(=O)CN(C)C(=O)C1=Cc2cc(OC)ccc2-c2c(C3CCCCC3)c3ccc(C(=O)NS(=O)(=O)N(C)C)cc3n2C1`, the concentration for half-maximal inhibition (IC50) lay in the range of 10 to 1000 nM.

Take `COC1CCCC(C(=O)N(C)C2Cc3ccccc3-c3c(C4CCCCC4)c4ccc(C(=O)NS(=O)(=O)N(C)C)cc4n3C2)C1` (stereo not shown): the IC50 lay in the range of 10 to 1000 nM.

As to `COc1ccc2c(c1)C=C(C(=O)N(C)C1CCS(=O)(=O)C1)Cn1c-2c(C2CCCCC2)c2ccc(C(=O)NS(=O)(=O)N(C)C)cc21` (stereo not shown), the IC50 lay within 10 to 1000 nM.

On to `COC(=O)[C@@H]1C[C@@H](O)CN1C(=O)C1=Cc2cc(OC)ccc2-c2c(C3CCCCC3)c3ccc(C(=O)NS(=O)(=O)N(C)C)cc3n2C1`, for which the IC50 was in the range of 10 to 1000 nM.

In the case of `O=C(O)c1ccc2c(C3CCCCC3)c3n(c2c1)CC(NC(=O)C1CCOCC1)Cc1ccccc1-3` (stereo not shown), the IC50 lay in the range of 10 to 1000 nM.

On to `COc1ccc2c(c1)C=C(C(=O)N1CCN(C(=O)N3CCCC3)CC1)Cn1c-2c(C2CCCCC2)c2ccc(C(=O)NS(=O)(=O)N(C)C)cc21`, for which the IC50 was 10 to 1000 nM.

With `COc1ccc2c(c1)C=C(C(=O)NCCN1C[C@@H](C)O[C@@H](C)C1)Cn1c-2c(C2CCCCC2)c2ccc(C(=O)NS(=O)(=O)N(C)C)cc21`, the IC50 is 10 to 1000 nM.

For the molecule `COC1CCCC(C(=O)N(C)C2Cc3ccccc3-c3c(C4CCCCC4)c4ccc(C(=O)O)cc4n3C2)C1` (stereo not shown), the IC50 was in the range of 10 to 1000 nM.

For `COc1ccc2c(c1)C=C(C(=O)N1C[C@H](O)C[C@H]1C(=O)Nc1ccc3c(C)cc(=O)oc3c1)Cn1c-2c(C2CCCCC2)c2ccc(C(=O)NS(=O)(=O)N(C)C)cc21`, the concentration for half-maximal inhibition (IC50) is 10 to 1000 nM.

For `COc1ccc2c(c1)CC(N(C)C(=O)N1C[C@@H](C)O[C@@H](C)C1)Cn1c-2c(C2CCCCC2)c2ccc(C(=O)O)cc21` (stereo partly shown), the IC50 was in the range of 10 to 1000 nM.

As for `CN(C)C(=O)CN(C)C(=O)C1=Cc2ccccc2-c2c(C3CCCCC3)c3ccc(C(=O)O)cc3n2C1`, the 50% inhibitory concentration (IC50) lay in the range of 10 to 1000 nM.

For `COc1ccc2c(c1)C=C(C(=O)NCCNC(C)=O)Cn1c-2c(C2CCCCC2)c2ccc(C(=O)NS(=O)(=O)N(C)C)cc21`, the IC50 was in the range of 10 to 1000 nM.

On to `COc1ccc2c(c1)C=C(C(=O)N1CCC(C(=O)N(C)C)CC1)Cn1c-2c(C2CCCCC2)c2ccc(C(=O)NS(=O)(=O)N3CCN(C)CC3)cc21`, for which the IC50 was 10 to 1000 nM.

In the case of `COc1ccc2c(c1)C=C(C(=O)N1CCN(C(C)=O)CC1)Cn1c-2c(C2CCCCC2)c2ccc(C(=O)NS(=O)(=O)N(C)C)cc21`, the IC50 was in the range of 10 to 1000 nM.

On to `COC(=O)c1ccc2c(C3CCCCC3)c3n(c2c1)CC(NC(=O)C1CCCC(OC)C1)Cc1ccccc1-3` (stereo not shown), for which the IC50 is greater than 1000 nM.

Turning to `CC(=O)NC1Cc2ccccc2-c2c(C3CCCCC3)c3ccc(C(=O)NS(=O)(=O)N(C)C)cc3n2C1` (stereo not shown), the IC50 was in the range of 10 to 1000 nM.

Take `COC(=O)CNC(=O)CNC(=O)C1=Cc2cc(OC)ccc2-c2c(C3CCCCC3)c3ccc(C(=O)NS(=O)(=O)N(C)C)cc3n2C1`: the IC50 lay in the range of 10 to 1000 nM.

Regarding `COc1ccc2c(c1)C=C(C(=O)N1CCC[C@@H](OC(C)=O)C1)Cn1c-2c(C2CCCCC2)c2ccc(C(=O)NS(=O)(=O)N(C)C)cc21`, the concentration for half-maximal inhibition (IC50) is 10 to 1000 nM.

For the molecule `O=C(NCCc1nc2ccccc2[nH]1)c1ccc2c(C3CCCCC3)c3n(c2c1)CC(C(=O)N1CCC(N2CCOCC2)CC1)=Cc1ccccc1-3`, the IC50 was in the range of 10 to 1000 nM.

For `O=C(NCc1ccco1)c1ccc2c(C3CCCCC3)c3n(c2c1)CC(C(=O)N1CCC(N2CCOCC2)CC1)=Cc1ccccc1-3`, the IC50 lay within 10 to 1000 nM.

In the case of `COc1ccc2c(c1)C=C(C(=O)N1CCC3(CC1)OC(=O)c1ccccc13)Cn1c-2c(C2CCCCC2)c2ccc(C(=O)NS(=O)(=O)N(C)C)cc21`, the IC50 lay in the range of 10 to 1000 nM.

On to `COc1ccc2c(c1)C=C(C(=O)N1CCN(C(=O)N(C)C)CC1)Cn1c-2c(C2CCCCC2)c2ccc(C(=O)NS(=O)(=O)N(C)C)cc21`, for which the IC50 lay within 10 to 1000 nM.

As for `CNC(=O)N1CCN(C(=O)C2=Cc3ccccc3-c3c(C4CCCCC4)c4ccc(C(=O)NS(=O)(=O)N(C)C)cc4n3C2)CC1`, the half-maximal inhibitory concentration (IC50) was in the range of 10 to 1000 nM.

Take `CN1CCN(C(=O)C2=Cc3ccccc3-c3c(C4CCCCC4)c4ccc(C(=O)NS(=O)(=O)N(C)C)cc4n3C2)CC1=O`: the IC50 lay in the range of 10 to 1000 nM.

Take `COc1ccc2c(c1)C=C(C(=O)N1CCN(C)C(=O)C1)Cn1c-2c(C2CCCCC2)c2ccc(C(=O)NS(=O)(=O)N(C)C)cc21`: the IC50 was 10 to 1000 nM.

Consider `COc1ccc2c(c1)CC(C(=O)N1CCN(C(=O)N(C)C)CC1)Cn1c-2c(C2CCCCC2)c2ccc(C(=O)NS(=O)(=O)N(C)C)cc21` (stereo not shown), for which the half-maximal inhibitory concentration (IC50) fell in the range of 10 to 1000 nM.

Still in this experiment, the particulars now being: Table 1b, read-out: IC50*.
For the molecule `COC(=O)c1ccc2c(C3CCCCC3)c3n(c2c1)CC(C(=O)N[C@@H]1C2CCC(C)([C@@H]1O)C2(C)C)=Cc1cc(OC)ccc1-3` (stereo partly shown), the IC50 was greater than 12500 nM.

With `COc1ccc2c(c1)C=C(C(=O)N1C[C@@H](C)N(C(C)C)[C@@H](C)C1)Cn1c-2c(C2CCCCC2)c2ccc(C(=O)NS(=O)(=O)N(C)C)cc21`, the IC50 was in the range of 20 to 1000 nM.

On to `COc1ccc2c(c1)C=C(C(=O)N(C)[C@H](C)C(=O)N1CCOCC1)Cn1c-2c(C2CCCCC2)c2ccc(C(=O)NS(=O)(=O)N(C)C)cc21`, for which the IC50 was less than 20 nM.
